Columns and labels:
ETL = test: Zebrafish morpholino knockdown of ETL: blood circulation and intersegmental vessel morphology; format: in vivo
Excerpt: (§1) To assess gene function in zebrafish (Danio rario) angiogenesis, MOs directed against ETL, GPR (or GPR176) and their respective mismatch controls are microinjected into zebrafish at the 1-2 cell stage. Blood circulation through the intersegmental vessels (ISVs) is observed in live zebrafish at 48 hpf and morphology of ISVs in the tail at 48 hpf using Phy-V antibody staining is also examined as described (Seng W. L. et al., Angiogenesis. 2004; 7(3):243-53.). The sequence for the ETL morpholino is: […]. The sequence for the mismatch […] morpholino (small case letters indicate mismatches) is: GCAcGAcTTTgATTGGAcAACTcTG. The sequence for the GPR morpholino is: […]. The sequence for the mismatch […] morpholino (small case letters indicate mismatches) is: AGgTCTgCGCcTTATCCcCCTCgAT.
While transcriptional gene changes provide the basis for investigating ETL and GPR as regulators of vascular development, experiments are carried out to obtain functional evidence that ETL and GPR are involved in blood vessel growth and development. To accomplish this, a zebrafish model may be used with ETL or GPR morpholino oligos to reduce gene expression during vasculogenesis. […] This effect is not seen in control MO injections.

GPR176 = test: Zebrafish morpholino knockdown of GPR (GPR176): blood circulation and intersegmental vessel morphology; format: in vivo; settings: 48 hpf
Excerpt: as §1
This effect is not seen in control MO injections.

Row | Substance | zebrafish affected (same ISV phenotype as the 0.5 pmol dose) (ETL; 0.25 pmol ETL MO, 48 hpf) [%] | zebrafish with abnormal connections and incomplete vessel formation of ISVs by immunostaining (ETL; 0.5 pmol ETL MO injected at 1-2 cell stage, 48 hpf) [%] | body morphology in live zebrafish (ETL; 0.5 pmol ETL MO, 48 hpf) | blood circulation through the intersegmental vessels in live zebrafish (ETL; 0.5 pmol ETL MO, 48 hpf, versus mismatch control) | phenotype of knockdown in images (FIG. 7) (ETL; 48 hours post fertilization, versus mismatch control) | zebrafish affected (similar ISV phenotype as the 0.5 pmol dose) (GPR176; 0.25 pmol GPR MO) [%] | body morphology in live zebrafish (GPR176; 0.5 pmol GPR MO) | zebrafish with abnormal connections and incomplete vessel formation of ISVs by immunostaining (GPR176; 0.5 pmol GPR MO, experiment 1) [%] | zebrafish with abnormal connections and incomplete vessel formation of ISVs by immunostaining (GPR176; 0.5 pmol GPR MO, experiment 2) [%] | blood circulation through the intersegmental vessels in live zebrafish (GPR176; 0.5 pmol GPR MO, versus mismatch control)
1 | ETL MO: morpholino oligo directed against zebrafish ETL, sequence GCAGGAGTTTCATTGGAGAACTGTG (SEQ ID NO 17) (all phosphorodiamidate morpholino (PMO)) | 70 | 100 | slightly curved body morphology | visible circulatory defects | retarded eye formation, edema in the brain and disrupted intersegmental vessel development and disrupted blood circulation |  |  |  |  | 
2 | GPR MO: morpholino oligo directed against zebrafish GPR176, sequence AGCTCTCCGCGTTATCCGCCTCCAT (SEQ ID NO 19) (all phosphorodiamidate morpholino (PMO)) |  |  |  |  |  | 37 | slightly curved body morphology | 76 | 94 | visible circulatory defects
